Test results as given in ChEMBL document CHEMBL3352542, “Synthesis, biological evaluation and molecular modeling study of 2-(1,3,4-thiadiazolyl-thio and 4-methyl-thiazolyl-thio)-quinazolin-4-ones as a new class of DHFR inhibitors” (Bioorg Med Chem Lett, 2014).
Active and inactive are the calls of the source. The calls are words filed in the database; no cut-off is given here.

Legend:
Dihydrofolate reductase = target: T1, Dihydrofolate reductase (Bos taurus, UniProt P00376); experiment: Inhibition of bovine liver DHFR
T1 sequence (P00376 whole entry): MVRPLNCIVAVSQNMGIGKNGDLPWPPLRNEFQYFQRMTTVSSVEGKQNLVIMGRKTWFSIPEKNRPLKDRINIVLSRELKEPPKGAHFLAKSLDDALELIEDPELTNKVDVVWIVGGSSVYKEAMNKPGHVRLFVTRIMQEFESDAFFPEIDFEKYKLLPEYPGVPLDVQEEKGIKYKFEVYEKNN

Staphylococcus aureus = experiment: Antimicrobial activity against Staphylococcus aureus assessed as inhibition zone at 200 ug/disk after 24 hrs by disc-diffusion method; assay type: functional; settings: read-out: IZ
Bacillus subtilis = experiment: Antimicrobial activity against Bacillus subtilis assessed as inhibition zone at 200 ug/disk after 24 hrs by disc-diffusion method; assay type: functional; settings: read-out: IZ
Escherichia coli = experiment: Antimicrobial activity against Escherichia coli assessed as inhibition zone at 200 ug/disk after 24 hrs by disc-diffusion method; assay type: functional; settings: read-out: IZ
Pseudomonas aeruginosa = experiment: Antimicrobial activity against Pseudomonas aeruginosa assessed as inhibition zone at 200 ug/disk after 24 hrs by disc-diffusion method; assay type: functional; settings: read-out: IZ
Candida albicans = experiment: Antimicrobial activity against Candida albicans assessed as inhibition zone at 200 ug/disk after 24 hrs by disc-diffusion method; assay type: functional; settings: read-out: IZ
[1] = (§1) Growth inhibition of human UO31 cells at 10 uM after 48 hrs; assay type: functional; settings: UO-31, 48 h, read-out: GI
MCF7 = experiment: Growth inhibition of human MCF7 cells at 10 uM after 48 hrs; assay type: functional; settings: for inhibition of growth at 10 µM: MCF7, 48 h, read-out: GI
T47D = experiment: Growth inhibition of human T47D cells at 10 uM after 48 hrs; assay type: functional
CCRF-CEM = experiment: Growth inhibition of human CCRF-CEM cells at 10 uM after 48 hrs; assay type: functional
HL-60(TB) = experiment: Growth inhibition of human HL-60(TB) cells at 10 uM after 48 hrs; assay type: functional
K562 = experiment: Growth inhibition of human K562 cells at 10 uM after 48 hrs; assay type: functional
MOLT-4 = experiment: Growth inhibition of human MOLT4 cells at 10 uM after 48 hrs; assay type: functional
RPMI-8226 = experiment: Growth inhibition of human RPMI8226 cells at 10 uM after 48 hrs; assay type: functional
SR = experiment: Growth inhibition of human SR cells at 10 uM after 48 hrs; assay type: functional
A549 = experiment: Growth inhibition of human A549 cells at 10 uM after 48 hrs; assay type: functional
HOP-92 = experiment: Growth inhibition of human HOP92 cells at 10 uM after 48 hrs; assay type: functional
NCI-H226 = experiment: Growth inhibition of human NCI-H226 cells at 10 uM after 48 hrs; assay type: functional
NCI-H23 = experiment: Growth inhibition of human NCI-H23 cells at 10 uM after 48 hrs; assay type: functional
NCI-H460 = experiment: Growth inhibition of human NCI-H460 cells at 10 uM after 48 hrs; assay type: functional
NCI-H522 = experiment: Growth inhibition of human NCI-H522 cells at 10 uM after 48 hrs; assay type: functional
COLO 205 = experiment: Growth inhibition of human COLO205 cells at 10 uM after 48 hrs; assay type: functional
HCC 2998 = experiment: Growth inhibition of human HCC2998 cells at 10 uM after 48 hrs; assay type: functional
HCT-116 = experiment: Growth inhibition of human HCT116 cells at 10 uM after 48 hrs; assay type: functional
HCT-15 = experiment: Growth inhibition of human HCT15 cells at 10 uM after 48 hrs; assay type: functional
HT-29 = experiment: Growth inhibition of human HT-29 cells at 10 uM after 48 hrs; assay type: functional
KM12 = experiment: Growth inhibition of human KM12 cells at 10 uM after 48 hrs; assay type: functional
SW-620 = experiment: Growth inhibition of human SW620 cells at 10 uM after 48 hrs; assay type: functional
SF-268 = experiment: Growth inhibition of human SF268 cells at 10 uM after 48 hrs; assay type: functional
SF-295 = experiment: Growth inhibition of human SF295 cells at 10 uM after 48 hrs; assay type: functional
SF-539 = experiment: Growth inhibition of human SF539 cells at 10 uM after 48 hrs; assay type: functional
SNB-19 = experiment: Growth inhibition of human SNB19 cells at 10 uM after 48 hrs; assay type: functional
SNB-75 = experiment: Growth inhibition of human SNB75 cells at 10 uM after 48 hrs; assay type: functional
U-251 = experiment: Growth inhibition of human U251 cells at 10 uM after 48 hrs; assay type: functional
LOX IMVI = experiment: Growth inhibition of human LOXIMVI cells at 10 uM after 48 hrs; assay type: functional
Malme-3M = experiment: Growth inhibition of human MALME-3M cells at 10 uM after 48 hrs; assay type: functional
M14 = experiment: Growth inhibition of human M14 cells at 10 uM after 48 hrs; assay type: functional
MDA-MB-435 = experiment: Growth inhibition of human MDA-MB-435 cells at 10 uM after 48 hrs; assay type: functional
SK-MEL-5 = experiment: Growth inhibition of human SK-MEL-5 cells at 10 uM after 48 hrs; assay type: functional
UACC-257 = experiment: Growth inhibition of human UACC257 cells at 10 uM after 48 hrs; assay type: functional
UACC-62 = experiment: Growth inhibition of human UACC62 cells at 10 uM after 48 hrs; assay type: functional
OVCAR-3 = experiment: Growth inhibition of human OVCAR3 cells at 10 uM after 48 hrs; assay type: functional
OVCAR-4 = experiment: Growth inhibition of human OVCAR4 cells at 10 uM after 48 hrs; assay type: functional
OVCAR-5 = experiment: Growth inhibition of human OVCAR5 cells at 10 uM after 48 hrs; assay type: functional
OVCAR-8 = experiment: Growth inhibition of human OVCAR8 cells at 10 uM after 48 hrs; assay type: functional
NCI/ADR-RES = experiment: Growth inhibition of human NCI-ADR-RES cells at 10 uM after 48 hrs; assay type: functional
786-0 = experiment: Growth inhibition of human 786-0 cells at 10 uM after 48 hrs; assay type: functional
A498 = experiment: Growth inhibition of human A498 cells at 10 uM after 48 hrs; assay type: functional
ACHN = experiment: Growth inhibition of human ACHN cells at 10 uM after 48 hrs; assay type: functional
CAKI-1 = experiment: Growth inhibition of human CAKI-1 cells at 10 uM after 48 hrs; assay type: functional
RXF 393 = experiment: Growth inhibition of human RXF393 cells at 10 uM after 48 hrs; assay type: functional
SN12C = experiment: Growth inhibition of human SN12C cells at 10 uM after 48 hrs; assay type: functional
TK-10 = experiment: Growth inhibition of human TK10 cells at 10 uM after 48 hrs; assay type: functional
UO-31 = experiment: as §1; assay type: functional
PC-3 = experiment: Growth inhibition of human PC3 cells at 10 uM after 48 hrs; assay type: functional
MDA-MB-231 = experiment: Growth inhibition of human MDA-MB-231 cells at 10 uM after 48 hrs; assay type: functional
Hs-578T = experiment: Growth inhibition of human Hs 578T cells at 10 uM after 48 hrs; assay type: functional
BT-549 = experiment: Growth inhibition of human BT549 cells at 10 uM after 48 hrs; assay type: functional
MDA-MB-468 = experiment: Growth inhibition of human MDA-MB-468 cells at 10 uM after 48 hrs; assay type: functional

Cc1nc(N)sc1Sc1nc2ccc(Cl)cc2c(=O)n1-c1ccccc1
IC50 (Dihydrofolate reductase): 5 µM
zone of inhibition at 200 µg/disc (Staphylococcus aureus): 8 mm
zone of inhibition at 200 µg/disc (Bacillus subtilis): 8 mm
zone of inhibition at 200 µg/disc (Escherichia coli): 8 mm
zone of inhibition at 200 µg/disc (Pseudomonas aeruginosa): 8 mm
zone of inhibition at 200 µg/disc (Candida albicans): 8 mm
inhibition of growth at 10 µM [1]: 32.6%
inhibition of growth at 10 µM (MCF7): 18%
inhibition of growth at 10 µM (T47D; read-out: GI): 14.3%

Cc1ccc2nc(Sc3sc(N)nc3C)n(-c3ccccc3)c(=O)c2c1
IC50 (Dihydrofolate reductase): 5 µM
zone of inhibition at 200 µg/disc (Staphylococcus aureus): 8 mm
zone of inhibition at 200 µg/disc (Bacillus subtilis): 8 mm
zone of inhibition at 200 µg/disc (Escherichia coli): 8 mm
zone of inhibition at 200 µg/disc (Pseudomonas aeruginosa): 8 mm
zone of inhibition at 200 µg/disc (Candida albicans): 8 mm
growth inhibition (GI) (CCRF-CEM): inactive
growth inhibition (GI) (HL-60(TB)): inactive
growth inhibition (GI) (K562): inactive
growth inhibition (GI) (MOLT-4): inactive
growth inhibition (GI) (RPMI-8226): inactive
growth inhibition (GI) (SR): inactive
growth inhibition (GI) (A549): inactive
growth inhibition (GI) (HOP-92): inactive
growth inhibition (GI) (NCI-H226): inactive
growth inhibition (GI) (NCI-H23): inactive
growth inhibition (GI) (NCI-H460): inactive
growth inhibition (GI) (NCI-H522): inactive
growth inhibition (GI) (COLO 205): inactive
growth inhibition (GI) (HCC 2998): inactive
growth inhibition (GI) (HCT-116): inactive
growth inhibition (GI) (HCT-15): inactive
growth inhibition (GI) (HT-29): inactive
growth inhibition (GI) (KM12): inactive
growth inhibition (GI) (SW-620): inactive
growth inhibition (GI) (SF-268): inactive
growth inhibition (GI) (SF-295): inactive
growth inhibition (GI) (SF-539): inactive
growth inhibition (GI) (SNB-19): inactive
growth inhibition (GI) (SNB-75): inactive
growth inhibition (GI) (U-251): inactive
growth inhibition (GI) (LOX IMVI): inactive
growth inhibition (GI) (Malme-3M): inactive
growth inhibition (GI) (M14): inactive
growth inhibition (GI) (MDA-MB-435): inactive
growth inhibition (GI) (SK-MEL-5): inactive
growth inhibition (GI) (UACC-257): inactive
growth inhibition (GI) (UACC-62): inactive
growth inhibition (GI) (OVCAR-3): inactive
growth inhibition (GI) (OVCAR-4): inactive
growth inhibition (GI) (OVCAR-5): inactive
growth inhibition (GI) (OVCAR-8): inactive
growth inhibition (GI) (NCI/ADR-RES): inactive
growth inhibition (GI) (786-0): inactive
growth inhibition (GI) (A498): inactive
growth inhibition (GI) (ACHN): inactive
growth inhibition (GI) (CAKI-1): inactive
growth inhibition (GI) (RXF 393): inactive
growth inhibition (GI) (SN12C): inactive
growth inhibition (GI) (TK-10): inactive
growth inhibition (GI) (UO-31): inactive
growth inhibition (GI) (PC-3): inactive
growth inhibition (GI) (MCF7): inactive
growth inhibition (GI) (MDA-MB-231): inactive
growth inhibition (GI) (Hs-578T): inactive
growth inhibition (GI) (BT-549): inactive
growth inhibition (GI) (T47D): inactive
growth inhibition (GI) (MDA-MB-468): inactive

COc1cc2nc(Sc3sc(N)nc3C)n(-c3ccccc3)c(=O)c2cc1OC
IC50 (Dihydrofolate reductase): 7 µM
zone of inhibition at 200 µg/disc (Staphylococcus aureus): 8 mm
zone of inhibition at 200 µg/disc (Bacillus subtilis): 8 mm
zone of inhibition at 200 µg/disc (Escherichia coli): 8 mm
zone of inhibition at 200 µg/disc (Pseudomonas aeruginosa): 8 mm
zone of inhibition at 200 µg/disc (Candida albicans): 8 mm
inhibition of growth at 10 µM (SR; read-out: GI): 15%
inhibition of growth at 10 µM (NCI-H522; NCI-H522, 48 h, read-out: GI): 25.6%
inhibition of growth at 10 µM [1]: 32.3%
inhibition of growth at 10 µM (MCF7): 21.7%
